What follows are compounds tested on L1210 (assay: In vitro inhibition of L1210 mouse leukemia cell proliferation.). Conditions: read-out: ID50 (the source's name).
Format: functional

Structure (SMILES) | IC50 [µM]
COc1cc(O)c2c(c1)C(=O)c1cc(CN(CCCl)CCCl)cc(O)c1C2=O | 0.023
Cc1cc(O)c2c(c1)C(=O)c1cccc(O)c1C2=O [CHRYSOPHANOL] | > 393
COc1cccc2c1C(=O)c1c(OC)cc(CN(CCO)CCO)cc1C2=O | > 50
CCN(CC)Cc1cc(O)c2c(c1)C(=O)c1cccc(O)c1C2=O | 2.75
Cc1cc(O)c2c(c1)C(=O)c1cc(O)cc(O)c1C2=O [EMODIN] | 13.3
O=C1c2cccc(O)c2C(=O)c2c(O)cc(CN(CCO)CCO)cc21 | 5.92
COc1cc(OC)c2c(c1)C(=O)c1cc(CN(CCO)CCO)cc(OC)c1C2=O | > 27.6
COc1cc(O)c2c(c1)C(=O)c1cc(CN(CCO)CCO)cc(O)c1C2=O | 13.7
CCN(CC)Cc1cc(OC)c2c(c1)C(=O)c1cccc(O)c1C2=O | 11.9
O=C1c2cccc(O)c2C(=O)c2c(O)cc(CN(CCCl)CCCl)cc21 | 0.13
COc1cc(OC)c2c(c1)C(=O)c1cc(CN(CCCl)CCCl)cc(OC)c1C2=O | 2.66
COc1cccc2c1C(=O)c1c(OC)cc(CN(CCCl)CCCl)cc1C2=O | 12.5
CCN(CC)Cc1cc(OC)c2c(c1)C(=O)c1cccc(OC)c1C2=O | 128
CCN(CC)Cc1cc(O)c2c(c1)C(=O)c1cc(OC)cc(O)c1C2=O | 1.16
COc1cc(CN(CCCl)CCCl)cc2c1C(=O)c1c(O)cccc1C2=O | 1.4
CCN(CC)Cc1cc(OC)c2c(c1)C(=O)c1cc(OC)cc(OC)c1C2=O | 6.91
COc1cc(OC)c2c(c1)C(=O)c1cc(CN(CCCl)CCCl)cc(O)c1C2=O | 1.75
COc1cccc2c1C(=O)c1c(O)cc(CN(CCO)CCO)cc1C2=O | 23.4

— ChEMBL document CHEMBL1124021, “Novel type of potential anticancer agents derived from chrysophanol and emodin. Some structure-activity relationship studies” (1988)
